For the assay, the system named is blood pressure, myocardial contractile force and vascular resistance. Nature of the assay: Administration of a cardiovascular agonist/blocker; indexes on myocardial contractile force and vascular resistance and changes in S1a and S2a observed. It counts as in vivo. Conditions: for change in S1a and S2a when the drug is administered (in words): summary of Tables 2 to 4. How it is done:
As cases of administering a cardiovascular agonist, Table 2 illustrates an experimental example in which various indexes on myocardial contractile force and vascular resistance and changes in S1a and S2a were observed when ephedrine of 10 mg as alpha and beta agonist was administered, Table 3 illustrates an experimental example in which various indexes on myocardial contractile force and vascular resistance and changes in S1a and S2a were observed when esmolol of 25 mg as beta-blocker was administered, and Table 4 illustrates an experimental example in which various indexes on myocardial contractile force and vascular resistance and changes in S1a and S2a were observed when phenylephrine of 100 mcg as the alpha agonist was administered. In order to determine the cause of the change in blood pressure, the above-described agents causing the change in blood pressure were administered and the response after the administration was examined.

Consider `CN[C@@H](C)[C@H](O)c1ccccc1` [ephedrine], for which the “change in S1a and S2a when the drug is administered (in words)” value (from here on “change in S1a and S2a”) was “S1a and S2a increase together”. Moreover, under “after administration of ephedrine 10 mg, before administration 1.79 ± 0.83, P 0.209”, the S12_R stood at 2.06 ± 0.84. Further, the “S′” value (after administration of ephedrine 10 mg, before administration 9.7 ± 2.1, P 0.014) is 11.3 ± 2.7. The S2a (after administration of ephedrine 10 mg, before administration 17.7 ± 8.1, P 0.004) turned out to be 22.6 ± 9.2 au. The same compound had an S1a (after administration of ephedrine 10 mg, before administration 27.6 ± 12.6, P 0.012) of 43.7 ± 24.9 au. This compound also registered an SBP (after administration of ephedrine 10 mg, before administration 109.6 ± 13.2, P <0.001) of 139.3 ± 14.0 mmHg. Further, the RRI (after administration of ephedrine 10 mg, before administration 652 ± 70, P 0.029) is 625 ± 90 ms. Besides, for the setting “after administration of ephedrine 10 mg, before administration 719.4 ± 199.2, P 0.011”, the SVR came out at 892.6 ± 250.2 dyne · sec/cm^5. The same compound gave a dp/dt (after administration of ephedrine 10 mg, before administration 725.2 ± 73.8, P 0.001) of 1065.5 ± 217.6 mmHg/s.
For `COC(=O)CCc1ccc(OCC(O)CNC(C)C)cc1` (centres unmarked) [esmolol], the “change in S1a and S2a” value was “only S1a is significantly decreased”. Also, the S12_R (after administration of esmolol 25 mg, before administration 2.6 ± 0.91, P 0.001) was found to be 1.4 ± 0.38. Moreover, the “S′” value (after administration of esmolol 25 mg, before administration 13.7 ± 4.4, P 0.011) is reported as 10.2 ± 2.1. The S2a (after administration of esmolol 25 mg, before administration 19.6 ± 5.5, P 0.162) was found to be 21.1 ± 5.4 au. Where the note is “after administration of esmolol 25 mg, before administration 49.3 ± 20.3, P 0.001”, the S1a worked out at 27.5 ± 9.3 au. Moreover, the SBP (after administration of esmolol 25 mg, before administration 136.1 ± 16.8, P <0.001) is given as 124.4 ± 13.2 mmHg. In addition, the RRI (after administration of esmolol 25 mg, before administration 598 ± 96, P <0.001) was determined as 700 ± 95 ms. The compound further displayed an SVR (after administration of esmolol 25 mg, before administration 776.4 ± 256.1, P 0.062) of 750.8 ± 251.0 dyne · sec/cm^5. Besides, the dp/dt (after administration of esmolol 25 mg, before administration 1051.5 ± 233.4, P <0.001) is on record as 804.3 ± 151.1 mmHg/s.
`CNC[C@H](O)c1cccc(O)c1` [phenylephrine]: the “change in S1a and S2a” value was “any significant change does not occur in S1a unlike S2a”. The same compound yielded an S12_R (after administration of phenylephrine 100 mcg, before administration 2.86 ± 1.73, P 0.531) of 4.18 ± 6.7. In addition, the S2a (after administration of phenylephrine 100 mcg, before administration 14.29 ± 7.53, P 0.016) is listed as 18.89 ± 8.14 au. For the setting “after administration of phenylephrine 100 mcg, before administration 33.6 ± 20.8, P 0.428”, this compound registered an S1a of 31.4 ± 15.5 au. The SBP (after administration of phenylephrine 100 mcg, before administration 93.7 ± 13.2, P 0.014) is 111.5 ± 13.8 mmHg. Further, under “after administration of phenylephrine 100 mcg, before administration 452.7 ± 110.0, P 0.007”, the SVR stood at 524.0 ± 132.2 dyne · sec/cm^5. The same compound registered an RRI (after administration of phenylephrine 100 mcg, before administration 575 ± 141, P 0.384) of 528 ± 197 ms. Besides, where the note is “after administration of phenylephrine 100 mcg, before administration 585.1 ± 106.1, P <0.001”, the dp/dt is recorded as 744.8 ± 95.3 mmHg/s.

The values are drawn from patent US11426084B2, “Method, apparatus and computer program for noninvasively determining cause of blood pressure change” (THE ASAN FOUNDATION, priority 2017, dated 2022).
